Laboratory results from publication PMC6418270, “The pharmacological and functional characterization of the serotonergic system in Anopheles gambiae and Aedes aegypti: influences on flight and blood-feeding behavior” (Scientific Reports, 2019).
pEC50: −log10 of the molar value. Structures can show the parent of a compound that is named as a salt.

Legend:
Ae. aegypti [1] = test: Blood-feeding assay after ingestion of compound in 10% sucrose; assay type: in vivo, Aedes aegypti
Description: Sucrose solution was withheld from newly-emerged mosquitoes for two days. On the third day, the mosquitoes were presented with a cotton ball saturated with 400 μL of a 10% sucrose solution laced with compound or the respective control for five days. The cotton ball was exchanged every other day with a fresh one. Seven to ten-day old female mosquitoes were treated with compound or appropriate control through microinjection post cold-anesthetization or ingestion. Two mL of human O^+ blood (BioChemed Services, Winchester, VA) was utilized to cover the concave surface of an inverted baby food jar. Hog intestine sealed the opening to simulate the puncturing of a host’s skin. The feeding membrane was placed on the top of a mosquito cage, and hot water was poured into the jar to warm the blood. After a 45-minute feed, the mosquitoes were immediately preserved at −20 °C. The blood meal size was determined for each mosquito via hemoglobinometry as previously described. Luminescence and calcium assay data were normalized and fitted with a non-linear least squares regression to generate dose-response curves, EC50 and IC50 values. Unpaired t-tests or Dunnett’s multiple comparisons test were performed accordingly to compare EC50 or IC50 values. Locomotion was measured based on the distance required for flight recovery. Data were compared with the Kruskal-Wallis and Dunnett’s multiple comparison tests after the Kolmogorov-Smirnov normality test was conducted. In the blood-feeding experiments, the percentage of blood-fed mosquitoes was calculated for each treatment group. For each biological replicate, the treatment groups were normalized with respect to the untreated group. Dunnett’s multiple comparison tests were utilized to determine statistical difference between normalized data. Size of bloodmeals were compared with an unpaired t-test or Mann-Whitney test after normality was evaluated with the Kolmogorov-Smirnov test. All analyses were performed utilizing GraphPad Prism version 7.00 for Mac OS X, GraphPad Software, La Jolla California USA, www.graphpad.com.

Ae. aegypti [2] = test: Mortality on 10% sucrose solution containing compound; assay type: in vivo; details: after a three-day period
Description: The serotonergic system was manipulated to identify its role in blood-feeding behavior. To allow for the depletion of 5-HT, mosquitoes were fed a 10% sucrose solution containing varying concentrations (1, 5, 10, 25, and 60 mg/mL) of PCPA ethyl ester, a compound that […] tryptophan hydroxylase, a crucial enzyme in 5-HT synthesis. At the two highest concentrations (25 and 60 mg/mL), there was a 100% mortality rate after a three-day period. […] In comparison to the control group, which ingested an average volume of 1.87μL of blood, the average blood meal size for 1 and 5 mg/mL PCPA-treated groups was 1.84 ± 0.16 μL (p = 0.89) and 2.33 ± 0.25 μL (p = 0.12), respectively.
Sucrose solution was withheld from newly-emerged mosquitoes for two days. On the third day, the mosquitoes were presented with a cotton ball saturated with 400 μL of a 10% sucrose solution laced with compound or the respective control for five days. The cotton ball was exchanged every other day with a fresh one.

AGAP002229 [3] = target: T1, AGAP002229 (Anopheles gambiae, UniProt A7UR33); test: Fluo-4 calcium assay in CRE-luc2P HEK-293 cells expressing AGAP002229; assay type: cell-based; details: for Response to biogenic amines: 10^−4 M; for Response to biogenic amines / Receptor activation by agonist: AGAP002229; for Ability to inhibit activity in a dose-response manner: antagonist test, receptor not given, taken as both 5-HT2 cell lines
Description: A week post-transfection, selective pressure was applied with […] of G418 antibiotic to generate stable lines.
1 × 10^6 cells per well were seeded into a 96-well black all-clear bottom plate and incubated overnight in 10% FBS/90% DMEM at 37 °C with an atmosphere of 5% CO2. The following day, 2X Fluo-4 Direct calcium dye (Molecular Devices LLC, San Jose, CA) was added to each well and incubated in the same conditions for 45 minutes before the assay was completed. At this time, serial dilutions of the test compounds were prepared in a 96-well clear flat bottom plate. […] Fluorescence measurements continued to be recorded for a total of 120 seconds at 2-second intervals. When testing antagonists, cells were treated with the compound prior to determination of fluorescence levels.
(§1) Luminescence and calcium assay data were normalized and fitted with a non-linear least squares regression to generate dose-response curves, EC50 and IC50 values. Unpaired t-tests or Dunnett’s multiple comparisons test were performed accordingly to compare EC50 or IC50 values. Locomotion was measured based on the distance required for flight recovery. Data were compared with the Kruskal-Wallis and Dunnett’s multiple comparison tests after the Kolmogorov-Smirnov normality test was conducted. In the blood-feeding experiments, the percentage of blood-fed mosquitoes was calculated for each treatment group. For each biological replicate, the treatment groups were normalized with respect to the untreated group. Dunnett’s multiple comparison tests were utilized to determine statistical difference between normalized data. Size of bloodmeals were compared with an unpaired t-test or Mann-Whitney test after normality was evaluated with the Kolmogorov-Smirnov test. All analyses were performed utilizing GraphPad Prism version 7.00 for Mac OS X, GraphPad Software, La Jolla California USA, www.graphpad.com.

AGAP002232 [4] = target: T2, AGAP002232 (Anopheles gambiae, UniProt A0A1S4GEY1); test: Fluo-4 calcium assay in CRE-luc2P HEK-293 cells expressing AGAP002232; assay type: cell-based; details: for Response to biogenic amines: 10^−4 M, AGAP002232; for Ability to inhibit activity in a dose-response manner: antagonist test, receptor not given, taken as both 5-HT2 cell lines
Description: The GloResponse™ CRE-luc2P human embryonic kidney (HEK-293) reporter cells were incubated at 37 °C with an atmosphere of 5% CO2, and maintained in Dulbecco’s Modified Eagle Medium (DMEM) supplemented with 10% fetal bovine serum (FBS) and […] hygromycin B. Transfection of the HEK-293 cells with 1 μg of plasmid DNA was performed with Amaxa Nucleofector™ technology (Lonza, Basel, Switzerland) as per manufacturer’s instructions. A week post-transfection, selective pressure was applied with […] of G418 antibiotic to generate stable lines.
1 × 10^6 cells per well were seeded into a 96-well black all-clear bottom plate and incubated overnight in 10% FBS/90% DMEM at 37 °C with an atmosphere of 5% CO2. The following day, 2X Fluo-4 Direct calcium dye (Molecular Devices LLC, San Jose, CA) was added to each well and incubated in the same conditions for 45 minutes before the assay was completed. At this time, serial dilutions of the test compounds were prepared in a 96-well clear flat bottom plate. Fluorescence levels were determined with a FlexStation3 microplate reader, with excitation and emission wavelengths set to 485 and 525 nm, respectively (Molecular Devices LLC). Basal fluorescence levels were measured for 17 seconds, at which time, 25 μl of the agonist compound was added. Fluorescence measurements continued to be recorded for a total of 120 seconds at 2-second intervals. When testing antagonists, cells were treated with the compound prior to determination of fluorescence levels.
as §1

AGAP002229 [5] = target: T1, AGAP002229; test: GloResponse CRE-luc2P cyclic AMP reporter (luminescence) assay, AGAP002229; assay type: cell-based; details: 10^−4 M
Description: (§2) The reporter construct in the HEK-293 cells regulated the transcription of the luciferase gene in response to cAMP levels, while the Rluc-Neo^r construct in the pF9a expression plasmid served as a normalizing agent. Cells suspended in 1% FBS/99% DMEM without phenol red were seeded in white 96-well plates at a density of 6.6 × 10^5 per well, and immediately treated with varying concentrations of compounds. Following a 4-hour incubation at 37 °C with an atmosphere of 5% CO2, the cells were prepared for a Dual-Glo luciferase assay according to the manufacturer’s instructions (Promega Corporation, Madison, WI). The luminescence units were measured on the SpectraMax L 96 microplate luminometer (Molecular Devices, Sunnyvale, CA) and normalized to the cell number.

AGAP002232 [6] = target: T2, AGAP002232; test: GloResponse CRE-luc2P cyclic AMP reporter (luminescence) assay, AGAP002232; assay type: cell-based; details: 10^−4 M
Description: as §2

Ae. aegypti [7] = test: Flight performance in flight cylinder after microinjection; assay type: in vivo, Aedes aegypti
Description: (§3) Stock solutions of the compounds were diluted to the appropriate concentrations in 1X phosphate buffer solution (PBS). To account for potential solvent effects, an ultrapure H2O control group was included in every independent experiment. Female mosquitoes were either cold- or CO2-anesthetized. A Nanoject II Auto-Nanoliter Injector (Drummond Scientific Company, Broomall, PA) was then utilized to microinject 69 nL of compound into the spiracle.
A flight cylinder was assembled as described previously. The polyacrylamide sheet was coated with Tangle-Trap Sticky Coating (The Scotts Company LLC, Marysville, OH) and allowed to sit overnight before insertion into the flight cylinder. Adult mosquitoes were anesthetized on a CO2 pad and microinjected with the compound or ultrapure H2O control. Post-injection, they were permitted to recover in a fly vial for 30 minutes before being ejected into the flight cylinder. After each trial, the distance between the top of the cylinder and the trapped mosquito was recorded. Mosquitoes captured in the fly vial at the bottom of the cylinder were considered to be incapable of flying and a distance of 91.5 cm was recorded.
as §1

Ae. aegypti [8] = test: Blood-feeding assay (artificial membrane feeder) after microinjection; assay type: in vivo, Aedes aegypti; details: 10 mM microinjected
Description: as §3
Seven to ten-day old female mosquitoes were treated with compound or appropriate control through microinjection post cold-anesthetization or ingestion. Two mL of human O^+ blood (BioChemed Services, Winchester, VA) was utilized to cover the concave surface of an inverted baby food jar. Hog intestine sealed the opening to simulate the puncturing of a host’s skin. The feeding membrane was placed on the top of a mosquito cage, and hot water was poured into the jar to warm the blood. After a 45-minute feed, the mosquitoes were immediately preserved at −20 °C. The blood meal size was determined for each mosquito via hemoglobinometry as previously described.
as §1

5-HT7 receptors = tested on: 5-HT7 receptors; set-up: method as in PMID 11282322; details: in humans; cited from earlier work

T2 sequence (A0A1S4GEY1 entry or part of it): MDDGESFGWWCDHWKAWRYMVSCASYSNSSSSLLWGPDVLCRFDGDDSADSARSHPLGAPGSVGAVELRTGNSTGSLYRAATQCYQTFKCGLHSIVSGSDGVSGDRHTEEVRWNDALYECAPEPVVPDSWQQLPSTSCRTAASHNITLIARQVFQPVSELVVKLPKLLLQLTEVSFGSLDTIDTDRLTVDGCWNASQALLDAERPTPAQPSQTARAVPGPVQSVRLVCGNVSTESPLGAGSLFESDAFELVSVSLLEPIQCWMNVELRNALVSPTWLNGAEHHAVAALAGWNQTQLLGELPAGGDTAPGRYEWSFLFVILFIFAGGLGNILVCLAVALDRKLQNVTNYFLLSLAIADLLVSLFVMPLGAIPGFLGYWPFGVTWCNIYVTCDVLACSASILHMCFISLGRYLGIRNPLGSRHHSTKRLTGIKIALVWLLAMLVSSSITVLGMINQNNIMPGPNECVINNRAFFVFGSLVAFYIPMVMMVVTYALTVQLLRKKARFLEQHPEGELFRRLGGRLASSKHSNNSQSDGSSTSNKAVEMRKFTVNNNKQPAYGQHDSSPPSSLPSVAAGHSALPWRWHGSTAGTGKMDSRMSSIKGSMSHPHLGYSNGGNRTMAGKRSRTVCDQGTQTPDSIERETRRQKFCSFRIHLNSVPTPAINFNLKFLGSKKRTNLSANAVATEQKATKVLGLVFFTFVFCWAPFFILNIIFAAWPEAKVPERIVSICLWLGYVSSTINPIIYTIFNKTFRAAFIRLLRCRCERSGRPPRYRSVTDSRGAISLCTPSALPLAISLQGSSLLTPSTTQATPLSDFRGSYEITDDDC
T1 sequence (A7UR33 entry or part of it): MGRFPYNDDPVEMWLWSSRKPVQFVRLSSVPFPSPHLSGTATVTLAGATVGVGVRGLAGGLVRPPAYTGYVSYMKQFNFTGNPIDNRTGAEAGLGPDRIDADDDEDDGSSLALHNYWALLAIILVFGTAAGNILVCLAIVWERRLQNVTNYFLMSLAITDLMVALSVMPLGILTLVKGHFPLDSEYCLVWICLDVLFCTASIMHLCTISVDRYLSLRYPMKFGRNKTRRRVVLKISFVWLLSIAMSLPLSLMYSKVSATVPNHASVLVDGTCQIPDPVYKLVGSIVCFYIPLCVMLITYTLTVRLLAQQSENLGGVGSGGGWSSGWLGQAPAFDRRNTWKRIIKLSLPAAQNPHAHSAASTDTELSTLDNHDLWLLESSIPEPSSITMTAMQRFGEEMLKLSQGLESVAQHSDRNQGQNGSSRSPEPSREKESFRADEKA

Compound: CCOC(=O)C(N)Cc1ccc(Cl)cc1.Cl (racemic) [PCPA ethyl ester, 4-chloro-DL-chlorophenylalanine ethyl ester hydrochloride]
- Average blood meal size (Ae. aegypti [1]; 1 mg/mL in 10% sucrose): 1.84 ± 0.16 µL
- Feeding success or blood meal volume versus control (Ae. aegypti [1]; 1 mg/mL in 10% sucrose): did not demonstrate any significant difference
- Average blood meal size (Ae. aegypti [1]; 5 mg/mL in 10% sucrose): 2.33 ± 0.25 µL
- Feeding success or blood meal volume versus control (Ae. aegypti [1]; 5 mg/mL in 10% sucrose): did not demonstrate any significant difference
- Average blood meal size (Ae. aegypti [1]; 10 mg/mL in 10% sucrose): 3.53 ± 0.16 µL
- Blood feeding success rate (Ae. aegypti [1]; 10 mg/mL in 10% sucrose): 73.2%
- Mortality rate (Ae. aegypti [2]; 25 mg/mL in 10% sucrose): 100%
- Mortality rate (Ae. aegypti [2]; 60 mg/mL in 10% sucrose): 100%

Compound: NCC(O)c1ccc(O)cc1 (racemic) [octopamine, (±)-octopamine hydrochloride]
- Response to biogenic amines (AGAP002229 [3]): indiscernible from background levels
- Response to biogenic amines (AGAP002232 [4]): indiscernible from background levels

Compound: NCCc1c[nH]c2ccc(O)cc12 [5-HT, serotonin hydrochloride]
- pEC50 (AGAP002229 [3]): 7.06
- pEC50 (AGAP002232 [4]): 5.72
- Receptor response (cyclic AMP) under Gαs and Gαi/o conditions (AGAP002229 [5]): no measurable responses
- Receptor response (cyclic AMP) under Gαs and Gαi/o conditions (AGAP002232 [6]): no measurable responses
- Effect on flight compared to H2O alone (Ae. aegypti [7]; 10 mM): did not affect flight
- Average distance in flight cylinder (Ae. aegypti [7]; 10 mM, Fig. 5c): 25.1 cm
- Ability to fly (Ae. aegypti [7]; concentrations greater than 10 mM): completely inhibited the mosquitoes’ ability to fly
- Successfully blood-fed, normalized to the untreated group (Ae. aegypti [8]): approximately 80%

Compound: COc1ccc2[nH]cc(CCN)c2c1 [5-MT, 5-methoxytryptamine]
- pEC50 (AGAP002229 [3]): 5.97
- Receptor activation by agonist (AGAP002229 [3]): able to activate

Compound: NCCc1c[nH]c2ccc(C(N)=O)cc12 [5-carboxamidotryptamine]
- Affinity for 5-HT7 receptors (5-HT7 receptors): strong affinity

Compound: CCCN(CCC)C1CCc2cccc(O)c2C1 (stereo not drawn) [8-OH-DPAT]
- Affinity for 5-HT7 receptors (5-HT7 receptors): strong affinity

Compound: NCCc1ccc(O)c(O)c1 [dopamine, dopamine hydrochloride]
- Response to biogenic amines (AGAP002229 [3]): indiscernible from background levels
- Response to biogenic amines (AGAP002232 [4]): indiscernible from background levels

Compound: NCCc1c[nH]cn1 [histamine]
- Response to biogenic amines (AGAP002229 [3]): indiscernible from background levels
- Response to biogenic amines (AGAP002232 [4]): indiscernible from background levels

Compound: CN1CCN2c3ccccc3Cc3ccccc3C2C1 (stereo not drawn) [mianserin, mianserin hydrochloride]
- Ability to inhibit activity in a dose-response manner (AGAP002229 [3]): only the former two exhibited the ability to inhibit activity
- Ability to inhibit activity in a dose-response manner (AGAP002232 [4]): only the former two exhibited the ability to inhibit activity

Compound: O=C(CCCN1CCC2(CC1)C(=O)NCN2c1ccccc1)c1ccc(F)cc1 [spiperone]
- Ability to inhibit activity in a dose-response manner (AGAP002229 [3]): only the former two exhibited the ability to inhibit activity
- Ability to inhibit activity in a dose-response manner (AGAP002232 [4]): only the former two exhibited the ability to inhibit activity

Compound: NCCc1c[nH]c2ccccc12 [tryptamine, tryptamine hydrochloride]
- pEC50 (AGAP002229 [3]): 5.56
- Receptor activation by agonist (AGAP002229 [3]): able to activate

Compound: NCCc1ccc(O)cc1 [tyramine, tyramine hydrochloride]
- Response to biogenic amines (AGAP002229 [3]): indiscernible from background levels
- Response to biogenic amines (AGAP002232 [4]): indiscernible from background levels

Compound: COC(=O)[C@@H]1[C@H]2C[C@H]3c4[nH]c5ccccc5c4CCN3C[C@@H]2CC[C@@H]1O [yohimbine, yohimbine hydrochloride]
- Ability to inhibit activity in a dose-response manner (AGAP002229 [3]): only the former two exhibited the ability to inhibit activity
- Ability to inhibit activity in a dose-response manner (AGAP002232 [4]): only the former two exhibited the ability to inhibit activity
